Measured values published in patent US20250292907A1, “SYSTEMS AND METHODS FOR PERFORMING GAIT AND SPEECH ASSESSMENT ASSOCIATED WITH A DISEASE STATE” (Regeneron Pharmaceuticals, Inc., priority 2024, published 2025).

Tests used:
[1] = test system: subjects with Parkinson's Disease (PD); test: Speech assessment with digital mobile speech-based platform in OFF vs ON medication state; type: in vivo, human; conditions: before vs after levodopa treatment, FIG. 103
Source text: Additionally, subjects were also tasked with performing voice and speech assessments using the digital mobile speech-based platform. These speech and language tasks were designed to evaluate different aspects of verbal ability and cognitive function in participants. In an aspect, these tasks were organized to be conducted in a quiet environment to ensure accurate measurement of speech parameters. In a picture description task, participants are shown a static image depicting an event and asked to describe it in their own words. This task serves as a proxy for spontaneous discourse, providing insights into natural language use. […] In a paragraph reading task, participants were required to read one of three standard paragraphs designed to include all English language phonemes and an equal number of details and information units. This task evaluates reading fluency and pronunciation. […] During this task, gait parameters were measured simultaneously using the wearable insoles test device and the production device. […] This involved repeating the same set of voice-related activities performed in the OFF state, including paragraph reading, picture description, object naming, rapid syllable repetition, and sustained phonation. Conducting these tasks in a quiet environment ensured that the speech parameters were accurately measured without external distractions. […]

[2] = test system: subjects with Parkinson's Disease (PD); test: Levodopa challenge test: MDS-UPDRS Part III motor examination in OFF state vs ON state; type: in vivo, human; conditions: ON minus OFF, mean (SD)
Description: To participate in the study, participants were required to meet several inclusion criteria. First, they needed a clinical diagnosis of PD confirmed by a treating movement disorders neurologist. Participants had to be between the ages of 40 and 70. […] Participants had to be willing to undergo a levodopa challenge test, which involves coming to an assessment site for evaluation in the morning after not taking levodopa since the night before (e.g., at least 12 hours). They would then take levodopa at the site, wait for it to take effect (achieving the “ON” state), and repeat the motor evaluation. Additionally, participants needed to be ambulatory in the “OFF” state, meaning they could walk safely without a walking aid on a flat surface at the start of the levodopa challenge test. […]
At step 305, system 100 may receive data from subjects that were assessed in an OFF-state. […]
In some aspects, the site investigator, who is a movement disorders specialist, was tasked with performing the MDS-UPDRS Part III motor examination. […] Specific tasks, including toe tapping and leg agility, were performed using the production device while wearing the wearable insole tests device to enable a quantitative analysis of these movements.
At step 310, system 100 may receive data from the subjects that were assessed in the ON-state. […]

SMILES: N[C@@H](Cc1ccc(O)c(O)c1)C(=O)O [levodopa]
- change in average word duration between medication states [1]: prevalent trend of decreasing word duration
- mean difference in the MDS-UPDRS III between the ON and OFF state ([2]; all subjects): -19.1 (SD=10)
- mean difference in the LE subscore between the ON and OFF state ([2]; lower extremity subscore of MDS-UPDRS III): −5.7 (SD=4)
